Test results as given in patent US4447611A, “Benzo-fused and heterocyclic fused imidazole anti-ulcer agents” (American Home Products Corporation, priority 1982, dated 1984).

Columns and labels:
H2 histamine receptors = target: T1, H2 histamine receptors (Cavia porcellus, UniProt P47747); test: guinea pig heart atrium test (histamine-induced positive chronotropic response in spontaneously beating right atrium); format: cell-based; settings: 32° C., pH 7.4, 30 minutes after addition of compound, vs histamine dose-response
T1 construct: from tissue; host or cells: guinea pig right atrium (isolated, spontaneously beating)
Experimental: The guinea pig heart atrium test is carried out as follows:
The tissue is allowed to stabilize over 1 hour. Individual contractions are recorded with a force-displacement transducer through a strain gauge coupler. A control dose-response curve to histamine in the above described tissue bath is obtained after which the tissue is washed 3 times and allowed to re-equilibrate to basal rate. The test compound is added to the tissue bath at the desired final concentration. Thirty minutes after addition of the compound, a fresh histamine dose response curve is again obtained. Then the response to histamine in the presence of antagonist is compared to the histamine control response. This procedure is repeated, using fresh tissues, for each concentration of antagonist tested.

rat gastric secretion = test: gastric secretion in the pylorus-ligated rat (modified Shay procedure); format: in vivo; settings: 32 mg/kg, interduodenally (i.d.), four hours after ligation, male Charles River rats
Experimental: The procedures for the results of these tests are presented at the end of the following examples, which will serve to illustrate the present invention.
The procedure for testing gastric secretion in the rat, a modification of the procedure of Shay et al., Gastroenterology, 26, 906-13 (1954) is carried out as follows:
Male Charles River rats weighing 200-300 grams are deprived of food but not water for 24 hours prior to use. Water is, however, withheld during the experiment. The rats are weighed, anesthetized, and the pylorus ligated according to the method of Shay et al. Treatment or vehicle control is then administered interduodenally (i.d.). Rats are housed 2/cage and sacrificed with CO2 four hours after ligation. The stomachs are removed, rinsed, and contents emptied into a graduated centrifuge tube. The tubes are centrifuged for 20 minutes at 2,000 RPM and the volume of gastric juice recorded. Any samples obviously contamined by feces, food or hemolysis are eliminated. An aliquot of each is frozen for later analysis of Na^+, K^+ and Cl^- concentration. The pH is measured and 1 ml. of gastric juice is titrated with 0.1 N NaOH to a pH of 7.0-7.4 Titratable acid output is calculated in microequivalents and the percent inhibition of acid output is calculated as follows: [formula]

[1] = cited from earlier work

T1 sequence (P47747 whole entry): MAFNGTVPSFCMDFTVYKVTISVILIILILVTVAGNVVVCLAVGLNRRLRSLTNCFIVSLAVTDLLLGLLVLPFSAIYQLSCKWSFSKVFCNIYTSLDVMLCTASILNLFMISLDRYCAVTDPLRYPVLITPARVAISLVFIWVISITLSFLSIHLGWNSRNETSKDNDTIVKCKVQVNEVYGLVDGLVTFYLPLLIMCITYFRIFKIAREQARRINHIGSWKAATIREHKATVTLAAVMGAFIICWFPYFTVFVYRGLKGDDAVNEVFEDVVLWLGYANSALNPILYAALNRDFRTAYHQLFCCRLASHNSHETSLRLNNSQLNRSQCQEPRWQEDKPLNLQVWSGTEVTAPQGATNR

Compound: c1cc(CN2CCCCC2)cc(OCCCNc2nc3ccccc3[nH]2)c1 [A, 2-[3-[3-[(1-piperidinylmethyl)]phenoxy]propylamine]benzimidazole]
- pA2 Value (apparent dissociation constant of the H2 antagonist) (H2 histamine receptors): 7.1
- % Inhibition (of acid output) (rat gastric secretion): 65%

Compound: CN/C(=N/CCSCc1nc[nH]c1C)NC#N [Cimetidine]
- confusional states (in words) ([1]; elderly patients): a tendency to cause confusional states in elderly patients
- anti-androgenic activity (in words) ([1]; patients): anti-androgenic activity
- duration of action (in words) ([1]; patients): short duration of action
